{"source": "the supplement of paper PMC10307832", "assay_in_all_cases": "relative viability (nuclei count vs DMSO), 5 days (fraction); higher = more cells survive", "key": {"[1]": {"tested_on": "HCC-366", "summary_of_the_method": "(§1)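 Nuclei were stained with Hoechst during a one-step fixation (final 0.05% Triton X-100, 1% formaldehyde, 1 ug/ml Hoechst) carried out 5 days after dosing, then counted on 4× images. The cells, lung cancer lines in 1536-well plates, had been dosed by pin tool the day after seeding with one drug alone or a fixed anchor-drug dose plus five library-drug doses (not always all listed) in √10 steps. Relative viability is the nuclei count in treated wells divided by that in vehicle wells, and each value is the median of duplicate plates.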"}, "[2]": {"tested_on": "NCI-H1395", "summary_of_the_method": "as §1"}, "[3]": {"tested_on": "EKVX", "summary_of_the_method": "as §1"}, "[4]": {"tested_on": "NCI-H2405", "summary_of_the_method": "as §1"}, "[5]": {"tested_on": "NCI-H596", "summary_of_the_method": "as §1"}, "[6]": {"tested_on": "NCI-H647", "summary_of_the_method": "as §1"}, "[7]": {"tested_on": "LOU-NH91", "summary_of_the_method": "as §1"}, "[8]": {"tested_on": "BEN", "summary_of_the_method": "as §1"}, "[9]": {"tested_on": "LC-2-ad", "summary_of_the_method": "as §1"}, "[10]": {"tested_on": "NCI-H2170", "summary_of_the_method": "as §1"}, "[11]": {"tested_on": "NCI-H2342", "summary_of_the_method": "as §1"}, "[12]": {"tested_on": "NCI-H1437", "summary_of_the_method": "as §1"}, "[13]": {"tested_on": "HCC-827", "summary_of_the_method": "as §1"}, "[14]": {"tested_on": "NCI-H1734", "summary_of_the_method": "as §1"}, "[15]": {"tested_on": "HARA", "summary_of_the_method": "as §1"}, "[16]": {"tested_on": "NCI-H2087", "summary_of_the_method": "as §1"}, "[17]": {"tested_on": "NCI-H1792", "summary_of_the_method": "as §1"}, "[18]": {"tested_on": "NCI-H1355", "summary_of_the_method": "as §1"}}, "data": [{"smiles": "CC1(C)CCC(c2ccc(Cl)cc2)=C(CN2CCN(c3ccc(C(=O)NS(=O)(=O)c4ccc(N[C@H](CCN5CCOCC5)CSc5ccccc5)c(S(=O)(=O)C(F)(F)F)c4)cc3)CC2)C1", "note": "[Navitoclax] + NC(=O)Nc1cc(-c2cccc(F)c2)sc1C(=O)N[C@H]1CCCNC1 [AZD7762] (partner 0.2 µM)", "values": [{"measurement": "relative viability", "setting": "[1]; first compound 0.005 µM", "result": 0.27}, {"measurement": "relative viability", "setting": "[1]; first compound 0.01581 µM", "result": 0.296}, {"measurement": "relative viability", "setting": "[1]; first compound 0.1581 µM", "result": 0.197}, {"measurement": "relative viability", "setting": "[1]; first compound 0.5 µM", "result": 0.214}, {"measurement": "relative viability", "setting": "[2]; first compound 0.005 µM", "result": 0.368}, {"measurement": "relative viability", "setting": "[2]; first compound 0.01581 µM", "result": 0.41}, {"measurement": "relative viability", "setting": "[2]; first compound 0.05 µM", "result": 0.357}, {"measurement": "relative viability", "setting": "[2]; first compound 0.1581 µM", "result": 0.385}, {"measurement": "relative viability", "setting": "[2]; first compound 0.5 µM", "result": 0.405}, {"measurement": "relative viability", "setting": "[3]; first compound 0.005 µM", "result": 0.728}, {"measurement": "relative viability", "setting": "[3]; first compound 0.01581 µM", "result": 0.784}, {"measurement": "relative viability", "setting": "[3]; first compound 0.05 µM", "result": 0.769}, {"measurement": "relative viability", "setting": "[3]; first compound 0.1581 µM", "result": 0.729}, {"measurement": "relative viability", "setting": "[3]; first compound 0.5 µM", "result": 0.777}, {"measurement": "relative viability", "setting": "[4]; first compound 0.005 µM", "result": 0.703}, {"measurement": "relative viability", "setting": "[4]; first compound 0.01581 µM", "result": 0.857}, {"measurement": "relative viability", "setting": "[4]; first compound 0.05 µM", "result": 0.622}, {"measurement": "relative viability", "setting": "[4]; first compound 0.1581 µM", "result": 0.698}, {"measurement": "relative viability", "setting": "[4]; first compound 0.5 µM", "result": 0.653}, {"measurement": "relative viability", "setting": "[5]; first compound 0.005 µM", "result": 1.32}, {"measurement": "relative viability", "setting": "[5]; first compound 0.01581 µM", "result": 1.26}, {"measurement": "relative viability", "setting": "[5]; first compound 0.05 µM", "result": 0.919}, {"measurement": "relative viability", "setting": "[5]; first compound 0.1581 µM", "result": 1.05}, {"measurement": "relative viability", "setting": "[5]; first compound 0.5 µM", "result": 1.05}, {"measurement": "relative viability", "setting": "[6]; first compound 0.005 µM", "result": 0.413}, {"measurement": "relative viability", "setting": "[6]; first compound 0.01581 µM", "result": 0.446}, {"measurement": "relative viability", "setting": "[6]; first compound 0.05 µM", "result": 0.492}, {"measurement": "relative viability", "setting": "[6]; first compound 0.1581 µM", "result": 0.343}, {"measurement": "relative viability", "setting": "[6]; first compound 0.5 µM", "result": 0.438}, {"measurement": "relative viability", "setting": "[7]; first compound 0.005 µM", "result": 0.746}, {"measurement": "relative viability", "setting": "[7]; first compound 0.01581 µM", "result": 0.792}, {"measurement": "relative viability", "setting": "[7]; first compound 0.05 µM", "result": 0.656}, {"measurement": "relative viability", "setting": "[7]; first compound 0.1581 µM", "result": 0.535}, {"measurement": "relative viability", "setting": "[7]; first compound 0.5 µM", "result": 0.306}, {"measurement": "relative viability", "setting": "[8]; first compound 0.005 µM", "result": 0.705}, {"measurement": "relative viability", "setting": "[8]; first compound 0.01581 µM", "result": 0.667}, {"measurement": "relative viability", "setting": "[8]; first compound 0.05 µM", "result": 0.647}, {"measurement": "relative viability", "setting": "[8]; first compound 0.1581 µM", "result": 0.725}, {"measurement": "relative viability", "setting": "[8]; first compound 0.5 µM", "result": 0.377}, {"measurement": "relative viability", "setting": "[9]; first compound 0.005 µM", "result": 0.835}, {"measurement": "relative viability", "setting": "[9]; first compound 0.01581 µM", "result": 0.957}, {"measurement": "relative viability", "setting": "[9]; first compound 0.05 µM", "result": 0.796}, {"measurement": "relative viability", "setting": "[9]; first compound 0.1581 µM", "result": 0.815}, {"measurement": "relative viability", "setting": "[9]; first compound 0.5 µM", "result": 0.822}, {"measurement": "relative viability", "setting": "[10]; first compound 0.005 µM", "result": 0.883}, {"measurement": "relative viability", "setting": "[10]; first compound 0.01581 µM", "result": 0.912}, {"measurement": "relative viability", "setting": "[10]; first compound 0.05 µM", "result": 0.845}, {"measurement": "relative viability", "setting": "[10]; first compound 0.1581 µM", "result": 0.798}, {"measurement": "relative viability", "setting": "[10]; first compound 0.5 µM", "result": 0.623}, {"measurement": "relative viability", "setting": "[11]; first compound 0.005 µM", "result": 0.532}, {"measurement": "relative viability", "setting": "[11]; first compound 0.01581 µM", "result": 0.464}, {"measurement": "relative viability", "setting": "[11]; first compound 0.05 µM", "result": 0.424}, {"measurement": "relative viability", "setting": "[11]; first compound 0.1581 µM", "result": 0.603}, {"measurement": "relative viability", "setting": "[11]; first compound 0.5 µM", "result": 0.571}, {"measurement": "relative viability", "setting": "[12]; first compound 0.005 µM", "result": 1.06}, {"measurement": "relative viability", "setting": "[12]; first compound 0.01581 µM", "result": 1.23}, {"measurement": "relative viability", "setting": "[12]; first compound 0.05 µM", "result": 1.06}, {"measurement": "relative viability", "setting": "[12]; first compound 0.1581 µM", "result": 1.08}, {"measurement": "relative viability", "setting": "[12]; first compound 0.5 µM", "result": 1.05}, {"measurement": "relative viability", "setting": "[13]; first compound 0.005 µM", "result": 0.274}, {"measurement": "relative viability", "setting": "[13]; first compound 0.01581 µM", "result": 0.188}, {"measurement": "relative viability", "setting": "[13]; first compound 0.05 µM", "result": 0.186}, {"measurement": "relative viability", "setting": "[13]; first compound 0.1581 µM", "result": 0.199}, {"measurement": "relative viability", "setting": "[13]; first compound 0.5 µM", "result": 0.235}, {"measurement": "relative viability", "setting": "[14]; first compound 0.005 µM", "result": 0.533}, {"measurement": "relative viability", "setting": "[14]; first compound 0.01581 µM", "result": 0.555}, {"measurement": "relative viability", "setting": "[14]; first compound 0.1581 µM", "result": 0.543}, {"measurement": "relative viability", "setting": "[14]; first compound 0.5 µM", "result": 0.506}, {"measurement": "relative viability", "setting": "[15]; first compound 0.005 µM", "result": 0.385}, {"measurement": "relative viability", "setting": "[15]; first compound 0.01581 µM", "result": 0.444}, {"measurement": "relative viability", "setting": "[15]; first compound 0.05 µM", "result": 0.212}, {"measurement": "relative viability", "setting": "[15]; first compound 0.1581 µM", "result": 0.228}, {"measurement": "relative viability", "setting": "[15]; first compound 0.5 µM", "result": 0.32}, {"measurement": "relative viability", "setting": "[16]; first compound 0.005 µM", "result": 1.18}, {"measurement": "relative viability", "setting": "[16]; first compound 0.01581 µM", "result": 1.38}, {"measurement": "relative viability", "setting": "[16]; first compound 0.1581 µM", "result": 1.29}, {"measurement": "relative viability", "setting": "[16]; first compound 0.5 µM", "result": 1.41}, {"measurement": "relative viability", "setting": "[17]; first compound 0.005 µM", "result": 0.593}, {"measurement": "relative viability", "setting": "[17]; first compound 0.01581 µM", "result": 0.77}, {"measurement": "relative viability", "setting": "[17]; first compound 0.1581 µM", "result": 0.559}, {"measurement": "relative viability", "setting": "[17]; first compound 0.5 µM", "result": 0.502}, {"measurement": "relative viability", "setting": "[18]; first compound 0.005 µM", "result": 0.745}, {"measurement": "relative viability", "setting": "[18]; first compound 0.01581 µM", "result": 0.728}, {"measurement": "relative viability", "setting": "[18]; first compound 0.05 µM", "result": 0.588}, {"measurement": "relative viability", "setting": "[18]; first compound 0.1581 µM", "result": 0.735}, {"measurement": "relative viability", "setting": "[18]; first compound 0.5 µM", "result": 0.668}]}]}
